According to the NIST ThermoML archive (doi:10.1021/je800122x):
± gives the expanded uncertainty stated by the source.

Legend:
[1] = refractive index (Na D-line) (dimensionless); conditions: 293.1 K; 101.33 kPa; Liquid; Standard Abbe refractometry
[2] = Liquid

SMILES | refractive index [1] | vapor or sublimation pressure ([2]; 293.15 K) | vapor or sublimation pressure ([2]; 303.15 K) | vapor or sublimation pressure ([2]; 313.15 K) | vapor or sublimation pressure ([2]; 323.15 K) | vapor or sublimation pressure ([2]; 333.15 K) | vapor or sublimation pressure ([2]; 343.15 K) | vapor or sublimation pressure ([2]; 353.15 K) | vapor or sublimation pressure ([2]; 363.15 K) | vapor or sublimation pressure ([2]; 369.15 K) | vapor or sublimation pressure ([2]; 323.1 K) | vapor or sublimation pressure ([2]; 333.05 K) | vapor or sublimation pressure ([2]; 343 K) | vapor or sublimation pressure ([2]; 352.9 K) | vapor or sublimation pressure ([2]; 358.15 K) | vapor or sublimation pressure ([2]; 358.45 K) | vapor or sublimation pressure ([2]; 361.15 K) | vapor or sublimation pressure ([2]; 364.15 K) | vapor or sublimation pressure ([2]; 367.15 K)
CC(Cl)CCl (stereo not drawn) [1,2-dichloropropane] | 1.4383 ± 0.0007 | – | – | – | – | – | – | – | – | – | – | – | – | – | – | – | – | – | –
CC(O)CCl (stereo not drawn) [1-chloro-2-propanol] | 1.4377 ± 0.0007 | 1.199 ± 0.99 kPa | 2.225 ± 1.1 kPa | 3.981 ± 1.3 kPa | 6.662 ± 1.7 kPa | 10.88 ± 2.4 kPa | 17.2 ± 3.3 kPa | 26.48 ± 4.7 kPa | 39.8 ± 6.7 kPa | 50.1 ± 8.2 kPa | – | – | – | – | – | – | – | – | –
CC(C)(Cl)OC(C)(C)Cl [propane, 2,2'-oxybis[2-chloro-] | 1.4473 ± 0.0007 | – | 0.24 ± 0.18 kPa | 0.564 ± 0.34 kPa | – | – | – | – | – | – | 0.867 ± 0.49 kPa | 1.28 ± 0.7 kPa | 1.919 ± 0.69 kPa | 2.822 ± 0.78 kPa | 3.673 ± 0.87 kPa | 3.348 ± 0.83 kPa | 4.237 ± 0.92 kPa | 4.806 ± 0.97 kPa | 5.477 ± 1 kPa
